According to the supplement of paper PMC10307832:

Compound: CS(=O)(=O)N1CCN(Cc2cc3nc(-c4cccc5[nH]ncc45)nc(N4CCOCC4)c3s2)CC1 [Pictilisib]
Experiment: relative viability (nuclei count vs DMSO), 5 days (fraction); higher = more cells survive
Procedure, shortened: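 Lung cancer cell lines were seeded into 1536-well plates, kept overnight at 37 °C and pinned with five library-drug doses (not always all listed) spaced by √10. After 5 days, nuclei were Hoechst-stained, imaged at 4× and counted with MetaXpress. Viability is treated-well nuclei over vehicle-well nuclei, taken as a median across plates. Plates needed control CV below 25% and at least one doubling.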

Cell Line	relative viability (0.02 µM)	relative viability (0.06325 µM)	relative viability (0.6325 µM)	relative viability (1 µM, anchor plate)	relative viability (2 µM)
NCI-H441	1.01	1.06	0.595	0.514	0.48
NCI-H520	0.998	0.886	0.361	0.298	0.203
CAL-12T	1.12	1.12	1.03	0.475	0.589
HCC-827	1.11	1.05	1.05	0.939	0.866
LC-2-ad	1.05	1.07	0.619	0.496	0.594
NCI-H2170	1	1.02	0.86	0.329	0.556
SW 1573	0.966	0.958	0.768	0.487	0.403
SK-MES-1	1.04	1.01	0.778	0.392	0.365
NCI-H1648	0.783	0.906	0.39	–	0.318
NCI-H1793	0.864	0.956	0.539	0.343	0.359
NCI-H1299	1.06	1.05	1.06	0.773	0.991
LCLC-97TM1	0.928	0.932	0.791	0.199	0.217
NCI-H1915	1.06	1.04	0.95	0.96	0.909
NCI-H661	1.02	1.05	1.03	0.424	0.672
NCI-H2405	1.07	0.977	0.851	0.433	0.451
NCI-H2347	1.02	1.05	0.934	0.644	0.708
NCI-H1651	0.961	0.997	0.918	0.639	0.631
H3255	1.01	0.962	0.862	0.46	0.531
Calu-6	1.05	1.04	1.01	0.907	0.792
SW 900	1.02	0.93	0.632	–	0.565
NCI-H650	1.03	0.958	0.848	0.865	0.687
NCI-H460	0.993	1.02	0.933	0.381	0.353
NCI-H2228	0.962	0.998	0.742	0.413	0.361
NCI-H2085	0.956	0.99	0.836	0.471	0.442
HCC-366	0.986	1.02	0.851	0.159	0.448
EPLC-272H	0.988	0.909	0.668	0.332	0.496
201T	0.97	0.964	0.921	0.702	0.64

Cell Line	relative viability (0.02 µM)	relative viability (0.06325 µM)	relative viability (0.6325 µM)	relative viability (1 µM, anchor plate)	relative viability (2 µM)
NCI-H3122	1.01	1.04	0.954	0.644	0.511
NCI-H838	1.01	0.902	0.722	0.455	0.426
NCI-H1755	1.01	0.979	0.925	0.434	0.639
HCC-15	1.1	1.02	0.866	0.737	0.666
NCI-H2087	1.07	1.09	0.968	0.913	0.689
LCLC-103H	1.05	0.984	0.707	0.625	0.663
NCI-H1650	1	1.01	0.809	0.598	0.532
LK-2	0.938	0.926	0.656	0.598	0.415
NCI-H2342	0.949	0.931	0.838	–	0.531
NCI-H522	1	1.05	0.768	–	0.648
EBC-1	0.943	1.14	0.868	0.409	0.272
ChaGo-K-1	1.04	1.02	0.893	0.783	0.815
HCC-78	0.867	0.854	0.586	0.219	0.376
NCI-H1666	1.06	1.11	0.961	0.47	0.679
IA-LM	0.924	1.03	0.941	0.373	0.476
EKVX	0.911	0.941	0.91	0.433	0.453
COR-L 105	1.1	0.974	0.871	0.391	0.555
NCI-H322M	0.988	0.973	0.714	0.531	0.453
HARA	1.05	1.13	0.846	0.401	0.555
NCI-H1703	0.929	0.806	0.408	0.244	0.208
NCI-H2023	1.04	0.831	0.55	0.262	0.18
NCI-H1437	1.03	1.06	0.902	0.482	0.528
BEN	1	1.01	0.951	0.57	0.75
LXF-289	0.996	1.01	1.08	0.814	0.92
NCI-H358	0.983	0.884	0.786	0.356	0.355
A549	0.992	0.97	0.731	0.517	0.437
NCI-H1993	0.94	0.869	0.639	0.766	0.674

Cell Line	relative viability (0.02 µM)	relative viability (0.06325 µM)	relative viability (0.6325 µM)	relative viability (1 µM, anchor plate)	relative viability (2 µM)
NCI-H727	1.04	0.92	0.914	0.39	0.536
LOU-NH91	1.02	0.987	0.874	0.538	0.681
NCI-H1975	0.98	0.804	0.605	0.307	0.292
PC-3 [JPC-3]	1.06	1.13	1.1	0.735	0.856
NCI-H2126	0.999	0.992	0.806	0.52	0.57
LU99A	1.01	0.971	0.794	0.327	0.425
NCI-H23	1.01	1.09	0.808	0.525	0.478
PC-14	1.1	1.14	0.994	0.672	0.703
HCC-44	1.03	0.975	0.991	0.612	0.644
A-427	1.1	1.07	0.921	0.698	0.74
NCI-H1623	0.962	0.94	0.664	–	0.341
NCI-H596	0.98	0.957	0.684	0.405	0.373
RERF-LC-KJ	0.974	0.944	0.807	0.565	0.575
NCI-H647	1.09	1.03	0.78	0.476	0.471
NCI-H1734	1.04	0.998	0.623	0.475	0.435
SK-LU-1	1.06	0.963	0.933	0.534	0.678
NCI-H1563	1.01	0.929	0.668	0.626	0.533
NCI-H1395	1.12	1.01	0.715	0.649	0.54
COR-L23	1.14	1.1	1.03	0.807	0.763
EMC-BAC-2	1.21	1.04	0.727	0.555	0.565
NCI-H1355	0.977	1	0.918	0.461	0.588
NCI-H1792	0.762	1.1	0.618	0.31	0.236
NCI-H1944	1.15	0.879	0.595	0.354	0.32
ABC-1	1.02	0.962	0.764	0.782	0.551
HOP-62	1.04	1.07	0.97	0.743	0.941
NCI-H2009	1.03	1.04	0.967	0.783	0.679
